Data taken from patent US11541029B2, “High penetration compositions and their applications” (Techfields Pharma Co., Ltd., priority 2008, dated 2023).
Non-standard residues stand in square brackets, D forms with d. *: point of attachment. Arg(NO2) = N=C(NCCC[C@H](N)C(=O)O)N[N+](=O)[O-]; OCH2CH2CH2CH3 = CCCCO*

Key:
[1] = test system: carrageenin-induced swelling of rat hind paw; test: Anti-inflammatory activity, carrageenin paw swelling; type: in vivo, rats
[2] = test system: rats given sterilized E. coli suspension as a pyrogen; test: Antipyretic activity of ibuprofen and its HPC (Study A); type: in vivo; settings: 20 mg/kg, oral administration
spinal cord injuries = test: Spinal cord injury in paralyzed rats; type: in vivo; settings: 5 mg in 0.2 ml water on area of injury twice per day for 1 months, n=10
Description: A paralyzed rat was produced by anesthetizing with chloral hydrate first, and then hitting at its spinal cord to induce spinal cord injuries. On the next day, 20 completely paralyzed rats were divided into 2 groups. […] In group B (n=10), 5 mg of diethylaminopropyl acetylsalicylate.HCl in 0.2 ml of pure water was applied to the area of injury (˜2×3 cm^2) twice per day for 1 months. After the treatment, all rats (10/10) in group A were still completely paralyzed. While all rats (10/10) in group B could walk. 4 Rats of group B acted completely normal and the other 6 rats walked more slowly and less confidently than before their injury.

Tg2576 mouse model of AD = test: Anti-Alzheimer disease activity in Tg2576 mice; type: in vivo
Excerpt: For many years, efforts have been focused on the development of inhibitors of β-amyloid (Aβ) formation and its related neurotoxic effects. To determine the effect of diethylaminopropyl acetylsalicylate. HCl on in vivo AD accumulation, we administered transdermally diethylaminopropyl acetylsalicylate. […] Three-month-old female transgenic mice overexpressing the human APP gene containing the Swedish mutation that causes familial AD (Tg2576 line) were used for testing the effects of diethylaminopropyl acetylsalicylate.HCl in vivo. 20 Tg2576 mice were divided into 2 groups. […] In group B (n=10), 50 mg/kg of diethylaminopropyl acetylsalicylate.HCl in 0.2 ml of pure water was applied to the back of mouse once per day for 2 months. Then the animals were killed and their brains were removed for analysis. For Aβ analysis, hemibrains were dounce homogenized in 70% formic acid at 150 mg tissue/ml formic acid solution. Homogenates were transferred to a chilled ultracentrifuge and were then spun at 100,000 g for 1 h at 4° C. Supernatants were collected and neutralized with formic acid neutralization buffer (1.0 M Tris base, 0.5 M NaH2PO4, and 0.05% NaN3; 1:20) for Aβ quantitation by ELISA. Aβ40 and Aβ42 were assayed by ELISA. Four individual experiments were performed. To compare across studies, the values for an individual study were normalized using the values obtained for the control animals included in each study. Values represent the mean±SE for the n number shown, after normalizing.
To determine if the transdermal administration of diethylaminopropyl acetylsalicylate.HCl has beneficial functional consequences, we tested 2 months of diethylaminopropyl acetylsalicylate.HCl (50 mg/kg) in the transgenic model for Alzheimer's disease in which mice develop learning deficits as amyloid accumulates. […] In the diethylaminopropyl acetylsalicylate.HCl (50 mg/kg) treated group, all mice performed superbly on the radial-arm water-maze test of working memory and untreated transgenic mice show memory deficits. […] This therapeutic approach can thus prevent and treat Alzheimer's dementia.

[3] = test system: Female Sprague Dawley (SD) rats; test: Anti-obesity in Sprague Dawley rats; type: in vivo
Description: 20 Female Sprague Dawley (SD) rats (20 weeks old, 320-345 g) were divided into 2 groups. In group A, 0.2 ml of water was administered to the back of rat (n=10) twice per day for 30 days. In Group B, 10 mg/kg of H-Val-Pro-Gly-Pro-Arg(NO2)—OCH2CH2CH2CH3.HCl in 0.2 ml of water was administered transdermally to the backs of rats (n=10) twice per day for 30 days.

[4] = test system: obese DB/DB mice (SLAC/DB/DB); test: Anti-obesity in obese mice (SLAC/DB/DB); type: in vivo
Description: 20 obese DB/DB mice (SLAC/DB/DB) mice (16 weeks old, 55-60 g) were divided into 2 groups. In group A, 0.1 ml of water was administered to the back of mouse (n=10) twice per day for 30 days. In Group B, 15 mg/kg of H-Val-Pro-Gly-Pro-Arg(NO2)—OCH2CH2CH2CH3.HCl in 0.2 ml of water was administered transdermally to the backs of rats (n=10) twice per day for 30 days.

[5] = test system: GK rats (SLAC/GK, type 2 diabetes); test: Anti-diabetes (type II) activity of HPCs of NSAIAs in GK rats; type: in vivo; settings: 30 mg/kg transdermally once per day, no fasting
Description: (§1) A HPC in the present disclosure lowered blood glucose levels in rat models (SLAC/GK, type 2 diabetes, n=7). 30 mg/kg of 8% diethylaminoethyl acetylsalicylate.HCl salt (P-1, in 25% ethanol); 4-acetamidophenyl salicylyldimethylaminobutyrate.HCl (P-6, in 25% ethanol), diethylaminoethyl 5-(2,4-difluorophenyl)acetylsalicylate.5-(2,4-difluorophenyl)acetylsalicylic acid salt (P-8, in 25% ethanol), diethylaminoethyl salicylsalicylate.HCl salt (P-9, in 25% ethanol), diethylaminoethyl salicylate.AcOH(P-10, in 25% ethanol), diethylaminoethyl 5-acetamido-acetylsalicylate.HCl(P-58, in 25% ethanol), diethylaminoethyl acetylsalicylsalicylate. HCl salt (P-59, in 25% ethanol), diethylaminoethyl acetylsalicylsalicylsalicylate. HCl salt (P-60, in 25% ethanol) were administered transdermally to the backs (6 cm^2, fur was shaved) of GK rats (SLAC/GK, 14-16 weeks old) and normal SD rats (SLAC/SD, 14-16 weeks old) once per day (at 8 am) for 6 weeks.
(§2) The blood glucose levels were measured once every 3 days at 4:30 pm (no fasting) from the third week to the sixth week as shown in Table 10a and 10b. […] Moreover, the blood glucose levels of the rats stayed at normal level (6-9 mmol/L, no fasting) after the treatment was stopped for 40 days.

normal SD rats (SLAC/SD) = test: Blood glucose in normal SD rats treated with HPCs of NSAIAs; type: in vivo; settings: 30 mg/kg transdermally once per day, no fasting
Description: as §1, §2

SLAC/DB/DB obese mice = test: Blood glucose and blood lipid levels in DB/DB mice; type: in vivo; settings: 30 mg/kg transdermally once per day
Description: HPCs in the present disclosure lowered blood glucose levels and blood lipid levels in mice models (SLAC/DB/DB, obese mice, n=7). 30 mg/kg of 8% diethylaminoethyl acetylsalicylate.HCl salt (P-1, in 25% ethanol); 4-acetamidophenyl salicylyldimethylaminobutyrate.HCl (P-6, in 25% ethanol), diethylaminoethyl 5-(2,4-difluorophenyl)acetylsalicylate.5-(2,4-difluorophenyl)acetylsalicylic acid salt (P-8, in 25% ethanol), diethylaminoethyl salicylsalicylate.HCl salt (P-9, in 25% ethanol), diethylaminoethyl salicylate.AcOH(P-10, in 25% ethanol), diethylaminoethyl 5-acetamido-acetylsalicylate.HCl(P-58, in 25% ethanol), diethylaminoethyl acetylsalicylsalicylate.HCl salt (P-59, in 25% ethanol), diethylaminoethyl acetylsalicylsalicylsalicylate.HCl salt (P-60, in 25% ethanol) were administered transdermally to the backs (4 cm^2,fur was shaved) of DB/DB mice(SLAC/DB/DB, 10-12 weeks old) once per day (at 8 am) for 5 weeks. The blood glucose levels were measured once per week and blood lipid levels were measured once every other week.

[6] = test system: SLAC:NOD-IDDM, type 1 diabetes; test: Anti-diabetes (type I) activity of HPCs of NSAIAs; type: in vivo, mice
Excerpt: 10% aqueous solution of diethylaminoethyl acetylsalicylate.acetylsalicylic acid salt (P-1, […]); 4-acetamidophenyl salicylyldimethylaminobutyrate. HCl (P-6), diethylaminoethyl 5-(2,4-difluorophenyl)acetylsalicylate.5-(2,4-difluorophenyl)acetylsalicylic acid salt (P-8), diethylaminoethyl salicylsalicylate.AcOH(P-9), diethylaminoethyl 5-acetamido-acetylsalicylate. HCl (P-58), diethylaminoethyl 2-(ρ-isobutylphenyl) propionate.citric acid (P-59), diethylaminoethyl acetylsalicylsalicylate. acetylsalicylsalicylsalicylic acid salt (P-60) (equal to of 20 mg/kg of NSAIAs) were administered transdermally to the shaved back (about 1.5 cm^2) of mice twice per day (at 8 am and 5 pm) for 7 weeks.
The blood glucose levels were measured once every 3 days at 4:30 pm (no fasting) from the fourth week to the seventh week as shown in Table 11.

[7] = test system: autologous blood clots injected in femoral vein (pulmonary thrombus); test: Anti-thrombosis activity, autologous blood clots in rabbits; type: in vivo, Chinese White rabbits; settings: 50 mg/kg topically to the back twice per day, 5 days
Description: Eighteen Chinese White rabbits weighing between 3.0 and 3.5 kg (aged 6-7 months) were selected and divided into three groups (control, P-1 and […] groups, n=6). One hour before the experiment, thrombi were made by aspirating venous blood (1 ml) into a sterilized bottle to clot. To avoid fragmentation and slow lysis, the autologous blood clots were stabilized in temperature-controlled (70° C.) distilled water for 10 min. After anesthesia, the femoral veins were exposed and distally isolated, and autologous blood clots (0.05 g/kg) were injected through an indwelling catheter (20GA), which had been placed in the femoral vein isolated earlier. 50 mg/kg of diethylaminoethyl acetylsalicylate.HCl salt (P-1, 10% in 25% ethanol) and diethylaminoethyl acetylsalicylsalicylate.HCl salt (P-59, 10% in 25% ethanol) were topically applied to the back of the rabbits twice per day. After 5 days, rabbits were euthanized with an excessive intravenous injection of sodium amobarbital (60 mg/kg). The lungs and hearts were isolated to observe whether thrombi were present in the pulmonary arteries. The lungs were immersed in 10% formalin for 24 h. Consecutive transverse sections along the obstructed pulmonary arteries were paraffin-embedded and stained with hematoxylin-eosine. […]

[8] = 10 mg/kg transdermally twice per day for 30 days
[9] = 15 mg/kg transdermally twice per day for 30 days

CCN(CC)CCOC(=O)C(C)c1ccc(CC(C)C)cc1.O=C(O)CC(O)(CC(=O)O)C(=O)O (stereo not drawn) [diethylaminoethyl 2-(p-isobutylphenyl)propionate.citric acid]
anti-inflammatory activity (rate of swelling) compared with ibuprofen ([1]; 20 mg/kg (2×10 mg) transdermally): much stronger than that of 100 mg/kg of ibuprofen (oral) | anti-inflammatory activity (rate of swelling) compared with ibuprofen ([1]; 50 mg/kg orally): much stronger than that of 100 mg/kg of ibuprofen (oral)

CCN(CC)CCOC(=O)C(C)c1ccc(CC(C)C)cc1 (stereo not drawn) [HPC of ibuprofen, diethylaminoethyl 2-(ρ-isobutylphenyl) propionate]
antipyretic effect [2]: almost the same effect as 100 mg/kg of ibuprofen | anti-inflammatory activities, times stronger than parent drug ibuprofen ([1]; transdermal or oral administrations): more than 5 times

CCN(CC)CCCOC(=O)c1ccccc1OC(C)=O.Cl [diethylaminopropyl acetylsalicylate.HCl]
rats that acted completely normal after the treatment (spinal cord injuries): 4 | rats that could walk after the treatment (spinal cord injuries): 10/10 | reduction in Aβ42 concentration in the brain (Tg2576 mouse model of AD; 50 mg/kg transdermally once per day for 2 months): 70% | Aβ42 concentration (Tg2576 mouse model of AD; 50 mg/kg transdermally once per day for 2 months, ELISA): 2.3 ± 0.3 pmol/g tissue | cognitive performance, radial-arm water-maze test of working memory (Tg2576 mouse model of AD; 50 mg/kg, 2 months): performed as well as nontransgenic mice

H-Val-Pro-Gly-Pro-Arg(NO2)—OCH2CH2CH2CH3.HCl (H-VPGP[Arg(NO2)]-OCH2CH2CH2CH3; also: HCl salt)
Food intake (per day & per rat) [3, 8]: 17.5 ± 1.2 | Weight (Day1) [3, 8]: 333.5 ± 4.2 g | Weight (Day 30) [3, 8]: 301.4 ± 3.7 g | control group heavier than the peptide treated group ([3]; rat, in vivo): about 17% | Food intake (per day & per rat) [4, 9]: 3.9 ± 0.3 | Weight (Day1) [4, 9]: 57.1 ± 1.8 g | Weight (Day 30) [4, 9]: 53.4 ± 4.7 g | control group heavier than the peptide treated group ([4]; mouse, in vivo): about 26%

CCN(CC)CCOC(=O)c1ccccc1OC(=O)c1ccccc1OC(C)=O.Cl [P-59, diethylaminoethyl acetylsalicylsalicylate. HCl salt]
blood glucose, Average (Week 2-5) [5]: 8.2 ± 2.7 mmol/L | blood glucose, Day 1 [5]: 16.8 ± 3.0 mmol/L | blood glucose, Average (Week 2-5) (normal SD rats (SLAC/SD)): 5.8 ± 1.0 mmol/L | blood glucose, Day 1 (normal SD rats (SLAC/SD)): 5.7 ± 1.3 mmol/L | Cholesterol (total), Day 1 (SLAC/DB/DB obese mice): 6.6 ± 0.4 mmol/L | Cholesterol (total), Week 5 (SLAC/DB/DB obese mice): 4.7 ± 0.4 mmol/L | Triglycerides, Day 1 (SLAC/DB/DB obese mice): 4.6 ± 0.4 mmol/L | Triglycerides, Week 5 (SLAC/DB/DB obese mice): 4.6 ± 0.5 mmol/L | blood glucose, Day 1 (SLAC/DB/DB obese mice): 14.2 ± 2.2 mmol/L | blood glucose, Week 5 (SLAC/DB/DB obese mice): 8.1 ± 2.4 mmol/L | blood glucose, Baseline ([6]; equal to 20 mg/kg of NSAIAs transdermally twice per day for 7 weeks): 19.1 ± 3.2 mmol/L | blood glucose, Average ([6]; fourth week to seventh week, no fasting, equal to 20 mg/kg of NSAIAs transdermally twice per day): 8.9 ± 1.7 mmol/L | lung tissue and vascular walls (histology) [7]: both lung tissue and vascular walls were normal
